Experimental data from ChEMBL document CHEMBL4382249, “1-Arylsulfonyl indoline-benzamides as a new antitubulin agents, with inhibition of histone deacetylase” (Eur J Med Chem, 2019).

Key:
MKN-45 = experiment: Growth inhibition of human MKN45 cells after 48 hrs by SRB assay; format: functional, cell-based; settings: MKN-45, 48 h
KB = experiment: Growth inhibition of human KB cells after 48 hrs by SRB assay; format: functional, cell-based
A549 = experiment: Growth inhibition of human A549 cells after 48 hrs by SRB assay; format: functional, cell-based; settings: A549, 48 h
Tubulin = Tubulin (Bos taurus, UniProt Q6B856+Q862L2+Q862F3)
[1] = Growth inhibition of human KB-VIN10 cells after 48 hrs by SRB assay; format: functional; settings: KB-VIN10, 48 h
[2] = Growth inhibition of human KB-S15 cells after 48 hrs by SRB assay; format: functional; settings: KB-S15, 48 h
[3] = Growth inhibition of human KB-7d cells after 48 hrs by SRB assay; format: functional; settings: KB7D
Tubulin (Bos taurus) [4] = target: T1, Tubulin (Bos taurus) (UniProt Q6B856+Q862L2+Q862F3); settings: at 1 µM
Tubulin (Bos taurus) [5] = target: T1, Tubulin (Bos taurus); settings: at 5 µM
[6] = target: T2, Polyamine deacetylase HDAC10 (Homo sapiens, UniProt Q969S8); experiment: Inhibition of human HDAC10 using RHKKAc as substrate by fluorescence assay
T2 sequence (Q969S8 whole entry): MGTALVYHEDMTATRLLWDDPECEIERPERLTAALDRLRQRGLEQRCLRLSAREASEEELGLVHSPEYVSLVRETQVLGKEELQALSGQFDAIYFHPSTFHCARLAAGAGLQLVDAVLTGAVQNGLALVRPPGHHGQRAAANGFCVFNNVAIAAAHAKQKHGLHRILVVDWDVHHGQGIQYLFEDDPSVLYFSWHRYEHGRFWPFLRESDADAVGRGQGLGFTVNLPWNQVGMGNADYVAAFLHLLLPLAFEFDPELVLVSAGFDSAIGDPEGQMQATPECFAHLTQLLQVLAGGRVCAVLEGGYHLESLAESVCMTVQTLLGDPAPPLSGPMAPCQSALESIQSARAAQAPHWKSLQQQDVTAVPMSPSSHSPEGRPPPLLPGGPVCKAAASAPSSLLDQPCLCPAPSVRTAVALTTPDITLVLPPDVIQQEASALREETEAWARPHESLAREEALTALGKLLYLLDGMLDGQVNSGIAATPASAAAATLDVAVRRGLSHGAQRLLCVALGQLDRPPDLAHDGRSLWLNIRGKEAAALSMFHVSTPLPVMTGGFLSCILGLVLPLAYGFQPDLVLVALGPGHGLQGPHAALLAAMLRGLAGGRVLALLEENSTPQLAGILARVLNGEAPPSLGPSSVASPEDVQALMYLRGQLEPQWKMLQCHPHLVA

Histone deacetylase 4 = Histone deacetylase 4 (Homo sapiens, UniProt P56524); experiment: Inhibition of human HDAC4 using fluorogenic p53-derived peptide RHKK(Ac) as substrate by fluorescence assay
Sequence of Histone deacetylase 4 (P56524 whole entry): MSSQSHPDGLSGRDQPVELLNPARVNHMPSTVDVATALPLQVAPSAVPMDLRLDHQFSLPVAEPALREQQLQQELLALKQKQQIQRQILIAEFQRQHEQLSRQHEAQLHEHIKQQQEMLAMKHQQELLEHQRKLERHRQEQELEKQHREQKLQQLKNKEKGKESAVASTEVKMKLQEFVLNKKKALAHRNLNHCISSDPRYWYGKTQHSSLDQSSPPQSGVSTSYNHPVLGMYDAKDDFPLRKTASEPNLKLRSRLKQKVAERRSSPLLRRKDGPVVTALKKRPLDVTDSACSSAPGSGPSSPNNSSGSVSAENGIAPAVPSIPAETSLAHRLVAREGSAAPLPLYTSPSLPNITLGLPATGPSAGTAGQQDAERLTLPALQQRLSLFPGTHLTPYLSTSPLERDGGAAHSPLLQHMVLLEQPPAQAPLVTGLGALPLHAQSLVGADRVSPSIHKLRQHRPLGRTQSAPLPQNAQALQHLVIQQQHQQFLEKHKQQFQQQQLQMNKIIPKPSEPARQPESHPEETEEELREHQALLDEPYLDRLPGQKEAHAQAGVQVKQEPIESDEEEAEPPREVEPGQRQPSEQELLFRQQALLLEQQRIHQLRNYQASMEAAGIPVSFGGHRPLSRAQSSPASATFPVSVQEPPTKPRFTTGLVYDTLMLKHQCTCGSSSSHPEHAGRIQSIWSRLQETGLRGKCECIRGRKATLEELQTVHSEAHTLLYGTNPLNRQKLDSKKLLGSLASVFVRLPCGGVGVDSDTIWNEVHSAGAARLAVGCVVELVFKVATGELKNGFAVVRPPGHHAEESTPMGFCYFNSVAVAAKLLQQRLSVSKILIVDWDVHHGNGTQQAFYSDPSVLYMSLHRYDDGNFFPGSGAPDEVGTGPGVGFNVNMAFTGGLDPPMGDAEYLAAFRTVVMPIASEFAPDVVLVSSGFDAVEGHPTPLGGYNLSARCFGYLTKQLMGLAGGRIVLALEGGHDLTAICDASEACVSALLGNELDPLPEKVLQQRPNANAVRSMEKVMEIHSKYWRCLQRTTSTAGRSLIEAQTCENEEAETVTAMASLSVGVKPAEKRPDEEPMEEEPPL

Histone deacetylase 9 = Histone deacetylase 9 (Homo sapiens, UniProt Q9UKV0); experiment: Inhibition of human HDAC9 using fluorogenic p53 (379-382) peptide RHKK(Ac) as substrate by fluorescence assay
Sequence of Histone deacetylase 9 (Q9UKV0 whole entry): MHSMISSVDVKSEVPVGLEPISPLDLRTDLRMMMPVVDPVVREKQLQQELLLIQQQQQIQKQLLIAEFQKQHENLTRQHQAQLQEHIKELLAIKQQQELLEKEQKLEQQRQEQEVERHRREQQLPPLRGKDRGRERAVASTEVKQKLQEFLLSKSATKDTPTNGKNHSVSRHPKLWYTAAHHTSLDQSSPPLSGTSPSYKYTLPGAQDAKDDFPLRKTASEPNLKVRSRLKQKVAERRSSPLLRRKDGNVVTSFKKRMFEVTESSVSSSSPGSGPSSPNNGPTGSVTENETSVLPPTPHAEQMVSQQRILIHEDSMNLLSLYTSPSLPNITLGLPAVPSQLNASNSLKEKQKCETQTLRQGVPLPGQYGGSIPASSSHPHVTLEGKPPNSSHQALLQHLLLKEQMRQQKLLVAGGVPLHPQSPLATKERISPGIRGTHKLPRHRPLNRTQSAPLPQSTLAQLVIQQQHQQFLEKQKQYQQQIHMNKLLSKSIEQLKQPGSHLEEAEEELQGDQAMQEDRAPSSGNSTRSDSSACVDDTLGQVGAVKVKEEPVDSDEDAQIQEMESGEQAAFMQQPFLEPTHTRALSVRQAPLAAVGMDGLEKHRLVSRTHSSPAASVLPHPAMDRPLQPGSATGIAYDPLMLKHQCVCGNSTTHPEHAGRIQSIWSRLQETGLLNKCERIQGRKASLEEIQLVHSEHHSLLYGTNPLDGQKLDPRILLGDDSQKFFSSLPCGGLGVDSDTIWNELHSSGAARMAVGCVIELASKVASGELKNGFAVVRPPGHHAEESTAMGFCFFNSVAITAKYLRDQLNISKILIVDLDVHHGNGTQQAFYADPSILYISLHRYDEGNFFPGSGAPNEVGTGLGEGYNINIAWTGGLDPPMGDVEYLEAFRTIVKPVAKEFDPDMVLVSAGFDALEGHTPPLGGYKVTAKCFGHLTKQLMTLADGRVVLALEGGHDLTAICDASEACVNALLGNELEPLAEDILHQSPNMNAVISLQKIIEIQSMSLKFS

| Structure (SMILES) | IC50 (MKN-45) [nM] | IC50 (KB) [nM] | IC50 (A549) [nM] | IC50 (Tubulin) [nM] | further results |
| --- | --- | --- | --- | --- | --- |
| COc1ccc(S(=O)(=O)N2CCc3cccc(CCc4ccc(C(=O)Nc5ccccc5N)cc4)c32)cc1 | 130 | 110 | 200 | 2500 | – |
| COc1ccc(S(=O)(=O)n2ccc3ccc(NCc4ccc(C(=O)Nc5ccccc5N)cc4)cc32)cc1 | 2500 | 1440 | 3900 | > 10000 | – |
| COc1ccc(S(=O)(=O)N2CCc3cccc(NCc4ccc(C(=O)Nc5ccccc5N)cc4)c32)cc1OC | 2300 | 1400 | 2700 | > 10000 | – |
| COc1cccc(S(=O)(=O)N2CCc3cccc(NCc4ccc(C(=O)Nc5ccccc5N)cc4)c32)c1 | 800 | 780 | 1100 | 3500 | – |
| COc1ccc(S(=O)(=O)N2CCc3cccc(NCc4ccc(C(=O)Nc5cccc(N)c5)cc4)c32)cc1 | 420 | 200 | 450 | 2300 | – |
| COc1ccc(S(=O)(=O)N2CCc3cccc(/C=C/c4ccc(C(=O)Nc5ccccc5N)cc4)c32)cc1 | 200 | 230 | 270 | 2700 | – |
| N#Cc1ccc(S(=O)(=O)N2CCc3cccc(NCc4ccc(C(=O)Nc5ccccc5N)cc4)c32)cc1 | 880 | 560 | 920 | 6400 | – |
| COc1ccc(S(=O)(=O)n2ccc3cccc(NCc4ccc(C(=O)Nc5ccccc5N)cc4)c32)cc1 | 440 | 130 | 640 | 3700 | – |
| COc1ccc(S(=O)(=O)N2CCc3ccc(NCc4ccc(C(=O)Nc5ccccc5N)cc4)cc32)cc1 | 2100 | 870 | 2400 | > 10000 | – |
| COc1ccc(S(=O)(=O)N2CCc3cccc(Nc4ccc(C(=O)Nc5ccccc5N)cc4)c32)cc1 | 140 | 120 | 190 | 2300 | IC50 [1]: 114 nM; IC50 [2]: 106 nM; IC50 [3]: 78.3 nM; inhibition (Tubulin (Bos taurus) [4]): 64.3%; inhibition (Tubulin (Bos taurus) [5]): 98.8% |
| Nc1ccccc1NC(=O)c1ccc(CNc2cccc3c2N(S(=O)(=O)c2ccccc2)CC3)cc1 | 780 | 260 | 870 | 3200 | – |
| COc1ccc(S(=O)(=O)N2CCc3cccc(NCc4ccc(C(=O)Nc5ccc(N)cc5)cc4)c32)cc1 | 480 | 260 | 570 | 3700 | – |
| COc1ccc(S(=O)(=O)N2CCc3cccc(NC(=O)c4ccc(C(=O)Nc5ccccc5N)cc4)c32)cc1 | – | – | > 10000 | – | – |
| COc1ccc(S(=O)(=O)Nc2cccnc2Nc2ccc(O)cc2)cc1 [ABT-751] | – | – | – | 3200 | inhibition (Tubulin (Bos taurus) [4]): 40.2%; inhibition (Tubulin (Bos taurus) [5]): 71.6% |
| Nc1ccccc1NC(=O)c1ccc(CNc2cccc3c2N(S(=O)(=O)c2ccc(F)cc2)CC3)cc1 | 870 | 540 | 930 | 3700 | – |
| Nc1ccccc1NC(=O)c1ccc(CNC(=O)OCc2cccnc2)cc1 [ENTINOSTAT] | 1200 | 520 | – | – | IC50 [6]: Not Active; IC50 (Histone deacetylase 4): Not Active; IC50 (Histone deacetylase 9): Not Active |
| COc1ccc(S(=O)(=O)N2CCc3cccc(NCc4cccc(C(=O)Nc5ccccc5N)c4)c32)cc1 | 3900 | 2200 | 5700 | 8500 | – |
| Nc1ccccc1NC(=O)c1ccc(CNc2cccc3c2N(S(=O)(=O)c2ccc(O)cc2)CC3)cc1 | 780 | 440 | 860 | 3300 | – |
| COc1ccc(S(=O)(=O)N2CCc3cc(NCc4ccc(C(=O)Nc5ccccc5N)cc4)ccc32)cc1 | 5000 | 2100 | 8900 | > 10000 | – |
| COc1ccc(S(=O)(=O)N2CCc3cccc(NCc4ccc(C(=O)Nc5ccccc5O)cc4)c32)cc1 | 10000 | 8700 | 10500 | > 10000 | – |
| Nc1ccccc1NC(=O)c1ccc(CNc2cccc3c2N(S(=O)(=O)c2ccc(Cl)cc2)CC3)cc1 | 460 | 210 | 560 | 4000 | – |
